Measured values published in paper PMC5647113 (Circulation. Arrhythmia and electrophysiology, 2017).

Experiments:
hERG (KV11.1) = hERG (KV11.1) (Homo sapiens, UniProt Q12809); assay: automated patch clamp; format: cell-based
hSK3 (KCa2.3) = hSK3 (KCa2.3) (Homo sapiens, UniProt Q9UGI6); assay: automated whole-cell patch clamp; format: cell-based
Sequence of hSK3 (KCa2.3) (Q9UGI6 whole entry): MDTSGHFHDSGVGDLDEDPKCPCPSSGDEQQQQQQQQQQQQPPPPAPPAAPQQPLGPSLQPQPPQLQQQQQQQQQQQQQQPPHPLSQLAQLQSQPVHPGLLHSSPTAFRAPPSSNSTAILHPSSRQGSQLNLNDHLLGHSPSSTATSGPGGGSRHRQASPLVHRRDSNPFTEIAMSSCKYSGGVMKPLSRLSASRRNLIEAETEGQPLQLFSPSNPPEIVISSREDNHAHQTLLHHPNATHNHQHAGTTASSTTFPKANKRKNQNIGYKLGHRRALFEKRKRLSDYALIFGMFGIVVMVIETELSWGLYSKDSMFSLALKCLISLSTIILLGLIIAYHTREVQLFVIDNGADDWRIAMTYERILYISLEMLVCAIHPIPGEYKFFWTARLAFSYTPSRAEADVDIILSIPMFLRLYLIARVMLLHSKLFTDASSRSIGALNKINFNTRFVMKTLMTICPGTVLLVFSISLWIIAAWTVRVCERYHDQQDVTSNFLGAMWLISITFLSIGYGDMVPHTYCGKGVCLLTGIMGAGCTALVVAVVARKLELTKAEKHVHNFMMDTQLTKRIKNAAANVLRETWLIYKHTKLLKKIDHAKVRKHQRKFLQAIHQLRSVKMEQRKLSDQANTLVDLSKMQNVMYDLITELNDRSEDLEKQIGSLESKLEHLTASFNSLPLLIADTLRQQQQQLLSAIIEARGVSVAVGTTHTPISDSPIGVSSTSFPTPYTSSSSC

Sequence of hERG (KV11.1) (Q12809 whole entry): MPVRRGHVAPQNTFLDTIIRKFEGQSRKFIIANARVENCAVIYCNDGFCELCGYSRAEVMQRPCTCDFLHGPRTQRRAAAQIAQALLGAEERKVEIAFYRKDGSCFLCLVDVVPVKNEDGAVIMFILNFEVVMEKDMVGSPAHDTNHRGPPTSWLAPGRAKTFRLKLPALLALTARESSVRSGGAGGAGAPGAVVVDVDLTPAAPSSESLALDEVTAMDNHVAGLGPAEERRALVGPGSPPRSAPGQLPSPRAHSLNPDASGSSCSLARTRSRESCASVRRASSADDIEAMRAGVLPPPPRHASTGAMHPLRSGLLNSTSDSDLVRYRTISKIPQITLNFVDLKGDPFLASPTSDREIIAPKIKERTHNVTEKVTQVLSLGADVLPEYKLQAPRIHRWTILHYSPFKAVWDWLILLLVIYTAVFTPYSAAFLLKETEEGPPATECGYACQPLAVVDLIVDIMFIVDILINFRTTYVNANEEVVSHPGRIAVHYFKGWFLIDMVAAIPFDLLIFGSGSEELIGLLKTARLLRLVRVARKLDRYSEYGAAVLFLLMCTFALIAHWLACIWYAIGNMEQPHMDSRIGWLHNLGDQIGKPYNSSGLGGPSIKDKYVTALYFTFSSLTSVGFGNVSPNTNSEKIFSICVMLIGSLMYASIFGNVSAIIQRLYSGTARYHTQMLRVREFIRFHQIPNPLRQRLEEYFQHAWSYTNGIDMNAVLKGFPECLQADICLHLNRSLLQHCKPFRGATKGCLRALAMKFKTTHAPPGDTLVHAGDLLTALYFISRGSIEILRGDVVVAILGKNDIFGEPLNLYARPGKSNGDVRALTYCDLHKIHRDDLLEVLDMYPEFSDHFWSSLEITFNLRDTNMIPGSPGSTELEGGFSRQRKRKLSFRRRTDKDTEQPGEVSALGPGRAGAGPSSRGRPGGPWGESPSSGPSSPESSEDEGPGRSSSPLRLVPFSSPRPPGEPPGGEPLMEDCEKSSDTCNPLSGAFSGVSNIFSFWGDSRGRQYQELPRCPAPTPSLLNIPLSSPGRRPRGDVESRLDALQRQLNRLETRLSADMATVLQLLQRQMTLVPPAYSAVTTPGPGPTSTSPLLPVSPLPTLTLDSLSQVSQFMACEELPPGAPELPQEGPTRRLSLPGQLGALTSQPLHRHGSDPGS

CC(=O)Nc1cccc2[nH]c(N[C@H](C)c3cccc(C(F)(F)F)c3)nc12 [AP14145, N-(2-{[(1R)-1-[3-(trifluoromethyl)phenyl]ethyl]amino}-1H-1,3-benzodiazol-4-yl)acetamide]
IC50 (hERG (KV11.1)): 71.8 ± 0.5 µM | IC50 (hSK3 (KCa2.3)): 1.3 ± 0.4 µM
